Source: US3985884A, “Complement inhibitors” (American Cyanamid Company, priority 1975, dated 1976)
Counter-ions that a name gives are not always drawn.

System: complement level
Assay: Complement Level Reduction Test
Format: in vivo
Conditions: serum of dosed guinea pigs, undiluted serum capillary tube method, compared to undosed controls

Structure (SMILES): O=C(Nc1ccc(-n2nc3ccc4cc(S(=O)(=O)O)cc(O)c4c3n2)c(S(=O)(=O)O)c1)Nc1ccc(-n2nc3ccc4cc(S(=O)(=O)O)cc(O)c4c3n2)c(S(=O)(=O)O)c1 [3,3'-Ureylenebis[6-(9-hydroxy-7-sulfo-2H-naphtho[1,2-d]triazol-2-yl)benzenesulfonic acid] tetrasodium salt]
- % Reduction Complement, In Vivo: 42%
